Test results published in publication PMC5469811, “Identification of GXXXXG motif in Chrysophsin-1 and its implication in the design of analogs with cell-selective antimicrobial and anti-endotoxin activities” (Scientific Reports, 2017).
≈ marks a conversion by molar mass, not a printed value. Residues, ends and D or L forms follow the SMILES beside them.

Legend:
[1] = tested on: Sporothrix schenckii (Patient isolates); experiment: microbe, parasite or virus in culture; type: cell-based; details: 48 h; read-out: Minimum inhibitory concentration (MIC)
S. aureus (ATCC 25923) = type: cell-based, Staphylococcus aureus; details: ATCC 25923, 1 h
BALB/c mice = experiment: In vivo toxicity of peptide alone; set-up: species or system mouse; details: peptide alone 5 and 10 mgKg−1 i.p., seven days, five animals
Experimental: For survival assay, mice were challenged intraperitoneally with LPS at a lethal dose of 15 mgKg^−1 E. coli 0111:B4[5]. Control mice were injected with an equal volume of PBS. G13P-Chr-1 at a single dose of 5 mgKg^−1 was injected in the mice groups that were already administered with 15 mgKg^−1 of LPS. Each group contained five mice. The mortality of mice was monitored up to 7 days and weight change was monitored every day. The peptide G13P-Chr-1 only was also injected in two groups of mice at 5 mgKg^−1 and 10 mgKg^−1 to check any mortality in mice by peptide only treatment.

[2] = tested on: LPS-induced TNF-α, IL-6 and IFN-γ in serum of BALB/c mice; experiment: In vivo inhibition of LPS mediated cytokine production; set-up: species or system mouse; details: LPS 10 mgKg−1 plus peptide 3 mgKg−1, 1, 2, 4, 6 h, ELISA, versus LPS only
Experimental: Enzyme-linked immunosorbent assays (ELISAs) were carried out to estimate the amount of tumor necrosis factor alpha (TNF-α) and interleukin-1β (IL-1β) secreted by LPS-treated THP-1 cells in the presence of peptides after 4–6 h of incubation. The levels of these cytokines in the culture supernatant of untreated and LPS-treated cells were taken as the negative and positive respectively, to calculate the percent inhibition by the peptides. For RANTES estimation the peptide LPS incubation was kept up to 24 h. The experiments were repeated twice reported as percentage inhibition. The absorbance of LPS treated cell supernatant was taken as zero inhibition. Similar ELISAs were performed to estimate the amount of TNF-α IL-6 and IFN-γ secreted by BALB/c mouse blood, which was collected from the orbital sinus at different time points post LPS injection, by using enzyme-linked immunosorbent assay kits for mouse TNF-α (BD Biosciences), IL-6 (BD Biosciences) and IFN-γ (BD Biosciences).
All the mice were divided into three experimental groups. Except the control group which was injected with PBS only, the other two groups were challenged with E. coli O111: B4 LPS at 10 mgkg^−1 of body weight in the presence and in the absence of 3 mgkg^−1 peptide. Blood was collected 1, 2, 4 and 6 h post LPS and peptide injection by the retro-orbital bleeding of mice. […]

## CC[C@H](C)[C@H](NC(=O)[C@H](C)NC(=O)[C@H](CCCCN)NC(=O)[C@@H]1CCCN1C(=O)[C@H](C)NC(=O)[C@H](Cc1c[nH]cn1)NC(=O)[C@@H](NC(=O)[C@H](C)NC(=O)CNC(=O)[C@H](CCCCN)NC(=O)[C@@H](NC(=O)[C@H](CC(C)C)NC(=O)[C@H](Cc1c[nH]c2ccccc12)NC(=O)CNC(=O)[C@H](Cc1ccccc1)NC(=O)[C@@H](N)Cc1ccccc1)[C@@H](C)CC)[C@@H](C)CC)C(=O)N[C@@H](Cc1c[nH]cn1)C(=O)NCC(=O)N[C@@H](CC(C)C)C(=O)N[C@H](C(=O)N[C@@H](Cc1c[nH]cn1)C(=O)N[C@@H](CCCNC(=N)N)C(=O)N[C@@H](CCCNC(=N)N)C(=O)N[C@@H](CCCNC(=N)N)C(=O)N[C@@H](Cc1c[nH]cn1)C(N)=O)[C@@H](C)CC [Peptide G13P-Chr-1] (H-FFGWLIKGAIHAPKAIHGLIHRRRH-NH2)
[1]
  MIC: 27.2 µM (≈ 79.7 µg/mL)
S. aureus (ATCC 25923)
  Antibacterial activity (MIC) after incubating peptide at 4 °C: 3 µM
  Antibacterial activity (MIC) after incubating peptide at 60 °C: 13 µM
  Antibacterial activity (MIC) after incubating peptide at 90 °C: 17.3 µM
BALB/c mice
  survival of mice (in vivo cytotoxicity): 100%
[2]
  LPS-induced production of TNF-α, IL-6 and IFN-γ in serum: significant reduction
